Experimental data as given in ChEMBL document CHEMBL3885861, “Open TG-GATES”.

Species on record: Rattus norvegicus
Assay: Open TG-GATES - Regimen: Single
Assay type: toxicity, organism-based, Sprague-Dawley
Set-up: regimen Single, gender Male, age 6 weeks
Conditions: in vivo, po, 0 mg/kg, route gavage, dose level Control; for APTT / Bas / Eos / Fbg / Hb / Ht / Lym / MCH / MCHC / MCV / Mono / Neu / PT / Plat / RBC / Ret / WBC: tissue Blood; for KIDNEY_L / KIDNEY_R / KIDNEY_TOTAL: tissue Kidney; for LIVER: tissue Liver; for A/G / ALP / ALT / AST / BUN / CRE / Ca / Cl / DBIL / GLC / IP / K / LDH / Na / PL / RALB / TBIL / TC / TG / TP / gamma-GTP: tissue Plasma

For `CC(=O)[C@@]1(O)CC[C@H]2[C@@H]3C=C(Cl)C4=CC(=O)CC[C@]4(C)[C@H]3CC[C@@]21C` [CHLORMADINONE], the TERMINAL_BW (3 h) was 219.1 g, the APTT (3 h) was 23.2 s and the Bas (3 h) was 0%. For the same compound, the Eos (3 h) was 0.6%, the Fbg (3 h) was 294.4 mg/dL and the Hb (3 h) was 13.3 g/dL. The Ht (3 h) was 41%, the Lym (3 h) was 83.4% and the MCH (3 h) was 20.4 pg. It also gave an MCHC (3 h) of 32.3%, an MCV (3 h) of 63.1 fL and a Mono (3 h) of 2.2%. The Neu (3 h) was 13.2%, the PT (3 h) was 15.5 s and the Plat (3 h) was 111.7 x10_4/uL. It also gave an RBC (3 h) of 650.2 x10_4/ul, a Ret (3 h) of 8% and a WBC (3 h) of 78.7 x10_2/uL. It also gave a KIDNEY_L (3 h) of 1 g, a KIDNEY_R (3 h) of 1 g and a KIDNEY_TOTAL (3 h) of 2 g. It also gave an LIVER (3 h) of 10 g, an A/G (3 h) of 1.2 and an ALP (3 h) of 1607 IU/L. The ALT (3 h) was 42 IU/L, the AST (3 h) was 77.8 IU/L and the BUN (3 h) was 13.4 mg/dL. The CRE (3 h) was 0.2 mg/dL, the Ca (3 h) was 10.8 mg/dL and the Cl (3 h) was 105.2 meq/L. For the same compound, the DBIL (3 h) was 0 mg/dL, the GLC (3 h) was 180 mg/dL and the IP (3 h) was 8.1 mg/dL. For the same compound, the K (3 h) was 4.3 meq/L, the LDH (3 h) was 163.6 IU/L and the Na (3 h) was 142.2 meq/L. The PL (3 h) was 130.6 mg/dL, the RALB (3 h) was 3 g/dL and the TBIL (3 h) was 0.02 mg/dL. It also gave a TC (3 h) of 71.8 mg/dL, a TG (3 h) of 63.4 mg/dL and a TP (3 h) of 5.4 g/dL. It also gave a gamma-GTP (3 h) of 1.8 IU/L, a TERMINAL_BW (6 h) of 216.7 g and an APTT (6 h) of 23.8 s. For the same compound, the Bas (6 h) was 0%, the Eos (6 h) was 0.6% and the Fbg (6 h) was 293.2 mg/dL. For the same compound, the Hb (6 h) was 13.3 g/dL, the Ht (6 h) was 41.1% and the Lym (6 h) was 80.6%. The MCH (6 h) was 20.6 pg, the MCHC (6 h) was 32.3% and the MCV (6 h) was 63.8 fL. For the same compound, the Mono (6 h) was 2.8%, the Neu (6 h) was 15.4% and the PT (6 h) was 16.1 s. It also gave a Plat (6 h) of 112 x10_4/uL, an RBC (6 h) of 643.6 x10_4/ul and a Ret (6 h) of 7.8%. For the same compound, the WBC (6 h) was 116.8 x10_2/uL, the KIDNEY_L (6 h) was 0.9 g and the KIDNEY_R (6 h) was 1 g. For the same compound, the KIDNEY_TOTAL (6 h) was 2 g, the LIVER (6 h) was 9.2 g and the A/G (6 h) was 1.2. For the same compound, the ALP (6 h) was 1313.8 IU/L, the ALT (6 h) was 40.8 IU/L and the AST (6 h) was 74.6 IU/L. It also gave a BUN (6 h) of 12.8 mg/dL, a CRE (6 h) of 0.1 mg/dL and a Ca (6 h) of 10.5 mg/dL. It also gave a Cl (6 h) of 105.4 meq/L, a DBIL (6 h) of 0 mg/dL and a GLC (6 h) of 190.8 mg/dL. For the same compound, the IP (6 h) was 9.3 mg/dL, the K (6 h) was 4.4 meq/L and the LDH (6 h) was 174.8 IU/L. For the same compound, the Na (6 h) was 141.2 meq/L, the PL (6 h) was 132.6 mg/dL and the RALB (6 h) was 2.9 g/dL. It also gave a TBIL (6 h) of 0.022 mg/dL, a TC (6 h) of 73.2 mg/dL and a TG (6 h) of 48.6 mg/dL. The TP (6 h) was 5.3 g/dL, the gamma-GTP (6 h) was 1.2 IU/L and the TERMINAL_BW (9 h) was 217.4 g. The APTT (9 h) was 23.3 s, the Bas (9 h) was 0% and the Eos (9 h) was 0.8%. For the same compound, the Fbg (9 h) was 309.2 mg/dL, the Hb (9 h) was 12.9 g/dL and the Ht (9 h) was 39.8%. The Lym (9 h) was 80%, the MCH (9 h) was 20.5 pg and the MCHC (9 h) was 32.3%. For the same compound, the MCV (9 h) was 63.4 fL, the Mono (9 h) was 2.6% and the Neu (9 h) was 15.8%. For the same compound, the PT (9 h) was 15.6 s, the Plat (9 h) was 123.4 x10_4/uL and the RBC (9 h) was 628 x10_4/ul. It also gave a Ret (9 h) of 8.2%, a WBC (9 h) of 100.7 x10_2/uL and a KIDNEY_L (9 h) of 1 g. The KIDNEY_R (9 h) was 1 g, the KIDNEY_TOTAL (9 h) was 2 g and the LIVER (9 h) was 9.4 g. The A/G (9 h) was 1.3, the ALP (9 h) was 1276.4 IU/L and the ALT (9 h) was 36.8 IU/L. It also gave an AST (9 h) of 70.2 IU/L, a BUN (9 h) of 13.6 mg/dL and a CRE (9 h) of 0.2 mg/dL. It also gave a Ca (9 h) of 10.5 mg/dL, a Cl (9 h) of 104.8 meq/L and a DBIL (9 h) of 0 mg/dL. For the same compound, the GLC (9 h) was 202.6 mg/dL, the IP (9 h) was 9.6 mg/dL and the K (9 h) was 4.1 meq/L. The LDH (9 h) was 170 IU/L, the Na (9 h) was 141.2 meq/L and the PL (9 h) was 128.4 mg/dL. For the same compound, the RALB (9 h) was 3 g/dL, the TBIL (9 h) was 0.02 mg/dL and the TC (9 h) was 70.4 mg/dL. It also gave a TG (9 h) of 69.8 mg/dL, a TP (9 h) of 5.3 g/dL and a gamma-GTP (9 h) of 1.6 IU/L. For the same compound, the TERMINAL_BW (24 h) was 233 g, the APTT (24 h) was 23.5 s and the Bas (24 h) was 0%. For the same compound, the Eos (24 h) was 0.8%, the Fbg (24 h) was 308.8 mg/dL and the Hb (24 h) was 13.3 g/dL. The Ht (24 h) was 40.9%, the Lym (24 h) was 82.8% and the MCH (24 h) was 20.5 pg. The MCHC (24 h) was 32.5%, the MCV (24 h) was 63.1 fL and the Mono (24 h) was 2.2%. For the same compound, the Neu (24 h) was 13.4%, the PT (24 h) was 15.9 s and the Plat (24 h) was 115.3 x10_4/uL. It also gave an RBC (24 h) of 649.2 x10_4/ul, a Ret (24 h) of 7.8% and a WBC (24 h) of 120.1 x10_2/uL. The KIDNEY_L (24 h) was 1 g, the KIDNEY_R (24 h) was 1 g and the KIDNEY_TOTAL (24 h) was 2 g. For the same compound, the LIVER (24 h) was 11 g, the A/G (24 h) was 1.2 and the ALP (24 h) was 1565 IU/L. The ALT (24 h) was 45.4 IU/L, the AST (24 h) was 73.6 IU/L and the BUN (24 h) was 17.8 mg/dL. It also gave a CRE (24 h) of 0.2 mg/dL, a Ca (24 h) of 10.9 mg/dL and a Cl (24 h) of 105.4 meq/L. The DBIL (24 h) was 0 mg/dL, the GLC (24 h) was 197.8 mg/dL and the IP (24 h) was 7.3 mg/dL. The K (24 h) was 4.7 meq/L, the LDH (24 h) was 219 IU/L and the Na (24 h) was 140.6 meq/L. It also gave a PL (24 h) of 166 mg/dL, an RALB (24 h) of 3 g/dL and a TBIL (24 h) of 0.01 mg/dL. The TC (24 h) was 85 mg/dL, the TG (24 h) was 115 mg/dL and the TP (24 h) was 5.5 g/dL. The gamma-GTP (24 h) was 1 IU/L.
